Source: paper PMC9862597, “Anti-Colorectal Cancer Effects of a Novel Camptothecin Derivative PCC0208037 In Vitro and In Vivo” (Pharmaceuticals, 2022)

Legend:
LS180 and HCT116 cells [1] = assay: Western blot of DNA damage and apoptosis related proteins; type: cell-based; details: 0.01 and 0.03 μM, compared to control
Procedure: Effects of PCC0208037 on the protein expression levels were examined by Western blotting, as described previously. Briefly, 2 × 10^6 LS180 and HCT116 cells were seeded in 10-cm dishes to adhere overnight. […] At the desired time points, cells were washed twice with a cold PBS. Then, cells were lysed in the RIPA buffer for 30 min on ice. The RIPA buffer contains protease inhibitors and phosphatase inhibitors. After sonication, the samples were centrifuged at 12,000 rpm, and then the supernatants were harvested and assayed for the protein concentration. Equal amounts of protein (30 μg) were separated with a polyacrylamide gel and transferred to a PVDF membrane. The membranes were blocked for 2 h (in 5% skim milk) and then incubated with primary antibodies overnight at 4 °C: ATM p-ATM, ATR, p-ATR, Chk1, p-Chk1, Chk2, p-Chk2, P53, p-P53, Bcl2, gamma H2AX, Bax, Puma, β-actin, and GAPDH. Then, the membranes were incubated with secondary antibodies for 2 h at room temperature. All these antibodies were diluted to a 1:1000 concentration in use. The immunoblots were visualized by a BeyoECL Plus enhanced chemiluminescence system.
Figure 6 Effects of PCC0208037 on molecules related to DNA damage in CRC cells. […]

[2] = 0.25 h and 1 h after single i.v. injection
Procedure: Then, 0.25 h and 1 h after the injection, the colorectal and tumor tissue were removed, rinsed with saline, and blotted dry.

[3] = Pharmacokinetic study, single intravenous dose
Procedure: Blood samples were collected at 0.083 h, 0.25 h, 0.5 h, 1 h, 2 h, 4 h, 8 h, and 12 h after administration. Plasma was prepared after centrifugation at 6000× g for 5 min and then stored at −20 °C for further analysis.

[4] = PCC0208037- and CPT-11-induced toxicity in mice; details: 50 mg/kg/day i.p. for four days
LS180 xenograft tumor = assay: Subcutaneous LS180 xenograft model; type: in vivo, nude mice; details: for tumor inhibition rate (tumor weight): 15 d
Procedure: To establish xenograft tumor models, RPMI 1640 and Matrigel were mixed at a 1:1 ratio. Colorectal cancer cells (LS180: 5 × 10^6 cells) were added to 0.1 mL of the mixture, and male nude mice were subcutaneously injected with colorectal cancer cells on the right side. […] Tumor volume and animal weight were measured every 3 days and continued until the end of the experiments. All mice were euthanized by cervical dislocation at the end of the experiment, and the xenograft tumors were removed and weighed.
Figure 8 Anti-tumor effect of PCC0208037 in the LS180 xenograft tumor model. (A) Representative tumors removed after the last treatment in each treatment group. (B) Body weight gain curves of mice bearing an LS180 xenograft tumor. (C) Tumor weights in the different groups of mice after 15 d of treatment.

LS180 and HCT116 cells [5] = assay: Cell growth curve assay; type: cell-based; details: 0.001, 0.003 µmol/L, counts over 6 days
Procedure: Cell proliferation was examined by a cell growth curve assay and a clone formation assay. Colorectal cancer cells (LS180 and HCT116 cells) were plated onto six-well plates at a density of 8000 cells per well. […] The number of cells was measured 24 h after the drug treatments. Growth curves were generated from cell counts over 6 consecutive days. For the clone formation assay, colorectal cancer cells (LS180 and HCT116 cells) were plated onto six-well plates at a density of 800 cells per well. […] Cells were then incubated with designated concentrations of PCC0208037. Fourteen days later, cells were stained with a crystal violet solution, and clones were counted.
Figure 2 Effect of PCC0208037 on cell growth. (A) Cell growth curves of LS180 cells under different treatments. (B) Cell growth curves of HCT116 cells under different treatments. The data were expressed as the mean ± SD (n = 3). * p < 0.05 as compared to the control.

HCT116 cells = assay: MTT cell viability assay, HCT116; type: cell-based; details: Homo sapiens, HCT-116, 72 h
Procedure: (§1) Cell viability was assessed using the MTT assay, as previously reported. Briefly, colorectal cancer cells (LS180, HCT116, CT-26, and HT-29 cells) were plated onto 96-well plates at 3000 cells per well and incubated overnight. […] Control cells were treated with DMSO at a final concentration of 0.1%. Cells were cultured with the compounds or medium for 72 h. The cells were then treated with MTT. The medium was then decanted, and DMSO was added and shaken until the color reaction was complete. The […] were read using a Molecular Devices SpectraMax M5 (San Jose, CA, USA) at OD570 nm. The half maximal inhibitory concentration (IC50) was calculated.

LS180 cells [6] = assay: MTT cell viability assay, LS180; type: cell-based; details: Homo sapiens, LS180, 72 h
Procedure: as §1

LS180 cells [7] = assay: Flow cytometry cell cycle and apoptosis assay; type: cell-based; details: LS180, 24, 48 and 72 h
Procedure: Cell cycle analysis and an Apoptosis Assessment were performed using flow cytometry. LS180 cells were seeded in 6-well plates at a density of 1 × 10^5 cells per well for 12 h, and then different concentrations of PCC0208037 were added for 24, 48, and 72 h, respectively. Cells were stained with PI- or PI/FITC-labeled annexin, and the effects of PCC0208037 on cell cycle progression and apoptosis were analyzed by flow cytometry.
Figure 5 PCC0208037 induced G2/M phase arrest and apoptosis in LS180 cells. (A) Cells were treated with multiple concentrations of PCC0208037 for 24, 48, and 72 h and then analyzed by flow cytometry with PI staining. (B). Cells were treated with multiple concentrations of PCC0208037 for 24, 48, and 72 h and then analyzed by flow cytometry with annexin VeFITC staining. The data were expressed as the mean ± SD (n = 3). * p < 0.05 as compared to the control.

[8] = BALB/c, mouse, in vivo, iv, 10.65 mg/kg
[9] = PCC0208037 in plasma, 10.65 mg/kg PCC0208037 i.v., n = 3

## CCc1c2c(nc3ccc(O)cc13)-c1cc3c(c(=O)n1C2)COC(=O)[C@@]3(CC)OC(=O)Nc1nc(=O)n([C@@H]2O[C@H](C)[C@@H](O)[C@H]2O)cc1F [PCC0208037]
LS180 and HCT116 cells [1]; 8 h
  protein levels of molecules associated with DNA damage: significantly up-regulated the protein levels of γ-H2AX, p-ATM, p-Chk1, p-Chk2, p-P53, and P53
LS180 and HCT116 cells [1]; 24 h
  protein levels of molecules associated with apoptosis: significantly up-regulated the protein levels of BAX and PUMA and down-regulated the protein level of Bcl-2
[2]
  concentration in the colorectal tissue compared with CPT-11: significantly lower than CPT-11
[3]; [8]
  Cmax: 137 µg/mL
  Tmax: 11.4 ± 4.2 min
  half-life: 70.2 ± 0.9 min
[3]; [9]
  AUCinf: 68,388.4 ± 17,991.1 H * ng/mL
  AUClast: 68,292.5 ± 18,078.2 H * ng/mL
[4]; colon after 7 days
  colorectal tissue histomorphological examination (H&E): A mild reduction of goblet cells and a mild infiltration of lymphocytes
[4]; seven-day observation
  mortality: No animal died
  recovery of body weight and food intake decrease: began to recover on the 6th day onwards
LS180 xenograft tumor; 5 mg/kg i.v. once every 3 days
  tumor inhibition rate (tumor weight): 29.9%
LS180 xenograft tumor; 10 mg/kg i.v. once every 3 days
  tumor inhibition rate (tumor weight): 37.2%
LS180 xenograft tumor; 20 mg/kg i.v. once every 3 days
  tumor inhibition rate (tumor weight): 50.8%
LS180 xenograft tumor; PCC0208037 5, 10, 20 mg/kg, CPT-11 10 mg/kg, i.v. once every 3 days
  effect on body weight of tumor-bearing mice: without impacting the normal feeding and body weight gain
LS180 and HCT116 cells [5]
  cell growth ability (cell growth curve): decreased the cell growth ability in a dose-dependent manner
HCT116 cells
  IC50: 2.9 ± 0.61 µM
LS180 cells [6]
  IC50: 0.22 ± 0.06 µM
LS180 cells [7]; FITC annexin V staining
  percentage of apoptotic cells: significantly increased the percentage of apoptotic cells
LS180 cells [7]; PI staining
  ratio of cells in the G2/M phase: significantly increased the ratio of the cells in the G2/M phase
